Experiments:
[1] = tested on: Human immunodeficiency virus 1; assay: Antiviral activity against HIV-1; format: functional, organism-based
[2] = Allosteric inhibition of LEDGF binding to HIV integrase by InLEAD assay; parameters: species or system Human immunodeficiency virus
[3] = tested on: Human immunodeficiency virus 1; assay: Antiviral activity against early stage HIV-1 assessed as disruption of proviral integration; format: functional, organism-based
[4] = tested on: Human immunodeficiency virus 1; assay: Selectivity ratio of IC50 for antiviral activity against early stage HIV-1 to IC50 for antiviral activity against late stage HIV-1; format: functional
[5] = tested on: Human immunodeficiency virus 1; assay: Antiviral activity against late stage HIV-1 assessed as inhibition of viral replication; format: functional, organism-based

| Structure (SMILES) | IC50 [1] | IC50 [2] | IC50 [3] | Ratio IC50 [4] | IC50 [5] |
| --- | --- | --- | --- | --- | --- |
| COc1ccc(NC(=O)c2cncc(-c3cc(C)ccc3S(=O)(=O)NC(C)(C)C)c2)cc1 | 15.6 µM | 8.85 µM | – | – | – |
| COc1ccc(NC(=O)c2cncc(-c3cccc(C)c3S(=O)(=O)NC(C)(C)C)c2)cc1 | 16.1 µM | > 67.5 µM | – | – | – |
| COCC1(NS(=O)(=O)c2ccccc2-c2cccc(C(=O)Nc3ccc(OC)cc3)c2)CCCC1 | 5.15 µM | > 67.5 µM | 16.3 µM | 2.3 | 7.15 µM |
| CC(C)(C)NS(=O)(=O)c1ccccc1-c1cccc(C(=O)Nc2ccc(CCC(=O)O)cc2)c1 | 6.53 µM | 3.74 µM | > 42 µM | >3.6 | 12 µM |
| COc1ccc(NC(=O)c2cccc(-c3ccccc3S(=O)(=O)NC(C)(C)CC(C)(C)C)c2)cc1 | 2.91 µM | > 67.5 µM | – | – | – |
| COc1ccc(NC(=O)c2cncc(-c3ccc(C)cc3S(=O)(=O)NC(C)(C)C)c2)cc1 | 10.8 µM | > 67.5 µM | – | – | – |
| CC(C)(C)NS(=O)(=O)c1ccccc1-c1cncc(C(=O)Nc2ccc(CCC(=O)NCCNC(=O)c3ccc4c(c3)C(=O)OC43c4ccc(O)cc4Oc4cc(O)ccc43)cc2)c1 | – | 0.368 µM | – | – | – |
| COc1ccc(NC(=O)c2cc(-c3ccccc3S(=O)(=O)NC(C)(C)C)ccc2F)cc1 | 9.43 µM | 2.81 µM | – | – | – |
| COC(=O)C(Cc1ccccc1)NC(=O)CCc1ccc(NC(=O)c2cncc(-c3ccccc3S(=O)(=O)NC(C)(C)C)c2)cc1 (stereo not drawn) | 3 µM | 3.22 µM | – | – | – |
| CC(C)(C)NS(=O)(=O)c1ccccc1-c1cncc(C(=O)Nc2ccc(CCC(=O)O)cc2)c1 | 9.31 µM | 1.29 µM | – | – | – |
| COc1ccc(NC(=O)c2cncc(-c3ccccc3S(=O)(=O)NC(C)(C)C)c2)cc1 | 7.93 µM | 1.29 µM | 27.3 µM | 5.4 | 5.09 µM |
| COC(=O)CCc1ccc(NC(=O)c2cccc(-c3ccccc3S(=O)(=O)NC(C)(C)C)c2)cc1 | 4.91 µM | 1.45 µM | – | – | – |
| Cc1ccc(-c2c([C@H](OC(C)(C)C)C(=O)O)c(C)nc3ccccc23)cc1C | – | 0.037 µM | 1.67 µM | 53.9 | 0.031 µM |
| COc1ccc(NC(=O)c2cccc(-c3ccccc3S(=O)(=O)NC(C)(C)C)c2)c(C)c1 | 5.03 µM | 1.91 µM | – | – | – |
| CCC(C)(C)NS(=O)(=O)c1ccccc1-c1cccc(C(=O)Nc2ccc(OC)cc2)c1 | 7.19 µM | 17.3 µM | – | – | – |
| Cc1ccc(NC(=O)c2cccc(-c3ccccc3S(=O)(=O)NC(C)(C)C)c2)c(C)c1 | 5.1 µM | 1.05 µM | – | – | – |
| COc1ccc(NC(=O)c2cc(-c3ccccc3S(=O)(=O)NC(C)(C)C)ccc2Cl)cc1 | > 42 µM | > 67.5 µM | – | – | – |
| COc1ccc(NC(=O)c2cccc(-c3ccccc3S(=O)(=O)NC3(C)CC3)c2)cc1 | 5.81 µM | 5.97 µM | – | – | – |
| COc1ccc(NC(=O)c2cccc(-c3ccccc3S(=O)(=O)NC(C)(C)C)c2)cc1 | 10.9 µM | 3.69 µM | – | – | – |
| COc1ccc(NC(=O)c2cccc(-c3ccccc3S(=O)(=O)NC(C)(C)C(C)(C)C)c2)cc1 | 27.7 µM | > 22.5 µM | – | – | – |
| COc1ccc(NC(=O)c2cccc(-c3ccccc3S(=O)(=O)NC(C)(C)C)n2)cc1 | 11.2 µM | > 33.8 µM | – | – | – |
| COc1ccc(NC(=O)c2cncc(-c3c(C)cccc3S(=O)(=O)NC(C)(C)C)c2)cc1 | 1.4 µM | 1.29 µM | 25.2 µM | 9.3 | 2.7 µM |
| COc1ccc(NC(=O)c2cccc(-c3ccccc3S(=O)(=O)NC3(C)CCC3)c2)cc1 | 5.79 µM | 2.23 µM | – | – | – |
| COc1ccc(NC(=O)c2cc(-c3ccccc3S(=O)(=O)NC(C)(C)C)ccn2)cc1 | 6.35 µM | 3.79 µM | – | – | – |
| CC(C)(C)NS(=O)(=O)c1ccccc1-c1cncc(C(=O)Nc2ccc(CCCC(=O)O)cc2)c1 | 7.86 µM | 1 µM | – | – | – |

From ChEMBL document CHEMBL5257121, “Discovery of arylsulfonamides as a novel class of allosteric integrase inhibitors with antiviral activity” (Bioorg Med Chem Lett, 2023)
